One data set relates to M07e cells. Put plainly: Cellular proliferation, [3H]thymidine uptake, Kit ligand dependent growth. Format: cell-based. Particulars: Homo sapiens, M-07e, read-out: IC50, M07e cells proliferation. As for the experimental part: The immortalized human hematopoietic Philadelphia chromosome-positive cytokine independent R10(−) M07e^p210 cell line (46) was maintained in Iscove's modified Dulbecco's medium (Life Technologies, Inc., Grand Island, N.Y.) containing 10% FCS (Hyclone, Logan, Utah). The parental M07e megakaryoblastic cell line was a kind gift of Brian Druker and was maintained in the presence of 50 ng/mL kit ligand (SCF) as described (46-47) K562 was obtained from the ATCC. K562 was maintained in suspension in 90% RPMI 1640 medium supplemented with 10% FBS, 2 mM L-glutamine, 10 mM HEPES, 1 mM sodium pyruvate, 1.5 g/L sodium bicarbonate, 4.5 g/L […], 10% FBS, 100 IU/mL penicillin and 100 μg/ml streptomycin. Tumor cell cultures were maintained in a humidified atmosphere with 5% CO2 at 37° C. (NuAire).
. Data points for all assays were obtained in triplicate, and background incorporation from cell-free wells was determined and subtracted from all data points. The data was analyzed using a non-linear regression fit to a sigmoidal dose-response curve using Prism 4 (GraphPad Software, Inc).

The test system of data set [1] is H1975 and H1975-DR lung cancer xenografts. Put plainly: microPET competitive inhibition of tracer uptake by unlabeled Dasatinib. Type of data set: in vivo, SCID mouse.
For data set [2] the following is noted: oral dasatinib therapy; cited from earlier work.
In the next data set the target is T1, EGFR (Homo sapiens, UniProt P00533).
T1 construct: purchased Carna Biosciences (QuickScout service)
Nature of the data set: QuickScout ELISA kinase panel. Format: biochemical. Particulars: Table 3. The text has this: (§1) An ELISA-based assay was used in which the phosphorylation of an oligopeptide substrate was detected by an HRP-conjugated anti-p-Tyr (PY20) probe.

The target in the next data set is T2, FGFR1 (Homo sapiens, UniProt P11362).
T2 construct: purchased Carna Biosciences (QuickScout service)
Nature of the data set: QuickScout ELISA kinase panel. Format: biochemical. Particulars: Table 3.
From the text: as §1
For orientation: An ELISA detects its analyte on a solid surface through an enzyme-linked reagent.

A further data set deals with T3, KIT (Homo sapiens, UniProt P10721).
T3 construct: purchased Carna Biosciences (Kobe, Japan), QuickScout service
Put plainly: QuickScout ELISA kinase panel. Format: biochemical. The note with it: Table 3.
From the text: as §1

The target of the next data set is T4, ACK (Homo sapiens, UniProt Q07912).
T4 construct: purchased Carna Biosciences (QuickScout service)
Nature of the data set: QuickScout ELISA kinase panel. Format: biochemical. From the text: (§2) . […] An ELISA-based assay was used in which the phosphorylation of an oligopeptide substrate was detected by an HRP-conjugated anti-p-Tyr (PY20) probe. […]. The data appears in Table 2 in Example 3.

A further data set addresses T5, CSK (Homo sapiens, UniProt P41240).
T5 construct: purchased Carna Biosciences (QuickScout service)
Nature of the data set: QuickScout ELISA kinase panel. Type of data set: biochemical.
From the text: as §2

The next data set addresses T6, EphA2 (Homo sapiens, UniProt P29317).
T6 construct: purchased Carna Biosciences (QuickScout service)
Nature of the data set: QuickScout ELISA kinase panel. Format: biochemical.
From the text: as §2

A further data set deals with T7, EphB4 (Homo sapiens, UniProt P54760).
T7 construct: purchased Carna Biosciences (QuickScout service)
Put plainly: QuickScout ELISA kinase panel. Format: biochemical.
From the text: as §2

Another data set has as its target T8, PDGFR— (Homo sapiens, UniProt P16234).
T8 construct: purchased Carna Biosciences (Kobe, Japan), QuickScout service
Nature of the data set: QuickScout ELISA kinase panel. Type of data set: biochemical.
From the text: as §2

Another data set concerns the target T9, TEC (Homo sapiens, UniProt P42680).
T9 construct: purchased Carna Biosciences (Kobe, Japan), QuickScout service
T9 sequence (P42680 1-631): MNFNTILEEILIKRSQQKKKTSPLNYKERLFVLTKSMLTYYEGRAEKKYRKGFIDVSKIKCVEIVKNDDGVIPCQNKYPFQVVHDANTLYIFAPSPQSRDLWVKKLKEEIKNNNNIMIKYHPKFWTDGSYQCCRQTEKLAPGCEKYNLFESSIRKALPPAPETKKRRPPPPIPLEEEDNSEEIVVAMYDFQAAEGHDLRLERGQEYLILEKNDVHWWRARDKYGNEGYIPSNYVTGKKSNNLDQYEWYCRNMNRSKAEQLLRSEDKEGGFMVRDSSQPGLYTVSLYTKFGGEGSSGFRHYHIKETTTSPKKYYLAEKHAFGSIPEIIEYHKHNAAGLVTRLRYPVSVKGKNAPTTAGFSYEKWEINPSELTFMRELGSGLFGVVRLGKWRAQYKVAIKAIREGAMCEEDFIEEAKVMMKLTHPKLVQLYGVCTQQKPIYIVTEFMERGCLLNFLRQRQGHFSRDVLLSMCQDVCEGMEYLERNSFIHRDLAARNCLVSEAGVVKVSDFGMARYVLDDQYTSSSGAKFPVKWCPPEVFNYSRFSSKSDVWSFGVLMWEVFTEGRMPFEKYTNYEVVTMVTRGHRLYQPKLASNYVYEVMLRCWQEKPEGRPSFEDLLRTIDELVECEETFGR
Put plainly: QuickScout ELISA kinase panel. Type of data set: biochemical.
From the text: as §2

The next data set addresses SRC (Homo sapiens, UniProt P12931). Put plainly: biochemical.
From the text: as §1

Data set [3] in a line: In vivo metabolism in mice (blood/plasma radio-HPLC). Particulars: for Peak 3 [18F]-5 (16.9 min) % Radioactivity, parent: plasma. As for the experimental part: Mice were injected i.v. with [^18F]-5 in the tail vein and sacrificed using carbon dioxide at 30, 60 and 120 min post injection. Each group contained three mice. Immediately after sacrifice, about 0.5 ml of blood was collected by cardiac puncture and deposited in a 1.5 ml Eppendorf tube. Disodium EDTA (2.5 mg) was used as anticoagulant. The samples were then maintained at 4° C. for subsequent procedures. The total radioactivity in each total blood sample was counted. The samples were then centrifuged at 4° C. at 2200×g. Radioactivity of the serum and pellet measured and about 50% of the total radioactivity was retained in the pellet. The serum was transferred to a 1.5 ml Eppendorf tube containing about […] of 60% acetonitrile in water and centrifuged again to precipitate any residual proteins. The supernatant was analyzed using HPLC and examined for metabolites. HPLC was carried out on a C-18 Shimadzu 4.6×250 mm HPLC column and eluted under gradient conditions 80% A (pH 5.5 50 mM NaOAc):20% B (CH3CN) to 20% A:80% B at 1 ml/min. Radioactivity was detected using Packard Radiomatic FLO-One/beta detector equipped with a PET flow cell containing BGO (bismuthgermanate) windows.

For data set [4], the system named is K562 (CML) tumor xenografts. Put plainly: microPET imaging of K562 xenograft. Format: in vivo, athymic nu/nu mice. The method, then:
All animal studies were carried out within the framework of an institutional IACUC approved protocol (No. 86-02-020). Athymic nu/nu mice (National Cancer Institute, Bethesda, Md.) were inoculated subcutaneously onto the right shoulder with 1×10^7 K562 cells mixed with Matrigel (BD Biosciences, San Jose, Calif.). K562 is a chronic myelogenous leukemia cell line cultured with IMDM (Iscove's modified Dulbecco's medium; prepared in-house) containing 4 mM L-glutamine, 1.5 g/L sodium bicarbonate, and 10% fetal bovine serum.
Three weeks following tumor inoculation, PET images of mice were obtained using FOCUS 120 microPET™ scanner (Siemens Preclinical Solutions, Knoxyille, Tenn.) with [^18F]-5. Mice were injected intravenously (via tail vein) with 14±1 MBq (375±25 μCi) of [^18F]-5 and imaged 60 minutes later under 2% (at 1 L/min) isoflurane anesthesia (Forane, Baxter Healthcare, Deerfield, Ill.). Image acquisition time was 15 min (t=60 to 75 min) using a 250-750 keV energy window and a 6 nsec timing window. List-mode data were sorted into sinograms by Fourier re-binning and reconstructed by filter back-projection without attenuation correction. Count data in the reconstructed images were converted to activity concentration (i.e. % of the injected dose per gram (% ID/gm)) using a system calibration factor determined using a ^18F-filled mouse-sized phantom. Visualization and analyses of microPET images were carried out using AsiPRO™ software (Siemens Preclinical Solutions, Knoxyille, Tenn.).
In vivo results have been obtained in athymic mice bearing subcutaneous K562 (CML) tumor xenografts in the right shoulder. [^18F]-5 (14±1 MBq, 375±25 μCi) was injected through the tail vein and the subjects were imaged in a microPET scanner. […] Tracer activity was evident within the tumor xenograft (white arrow) and was determined to be 1.1% of the injected dose by ROI (region of interest) analysis. […] The transaxial image was taken at the level of the known palpable tumor as shown in the coronal section (broken line). The intensity of the radiotracer activity is color-graded as depicted by the colored scale.

The target of the next data set is ABL (Homo sapiens, UniProt P00519). Put plainly: QuickScout ELISA kinase panel. Format: biochemical. Set-up: purchased Carna Biosciences (QuickScout service). Particulars: Table 3.
From the text: as §1

A further data set has as its target T10, FLT3 (Homo sapiens, UniProt P36888).
T10 construct: purchased Carna Biosciences (Kobe, Japan), QuickScout service
Nature of the data set: QuickScout ELISA kinase panel. Format: biochemical.
From the text: as §2

In a further data set the target is T11, JAK3 (Homo sapiens, UniProt P52333).
T11 construct: purchased Carna Biosciences (QuickScout service)
Put plainly: QuickScout ELISA kinase panel. Type of data set: biochemical.
From the text: as §2

A further data set concerns the target T12, MET (Homo sapiens, UniProt P08581).
T12 construct: purchased Carna Biosciences (QuickScout service)
Put plainly: QuickScout ELISA kinase panel. Type of data set: biochemical.
From the text: as §2

The next data set concerns the target T13, TYRO3 (Homo sapiens, UniProt Q06418).
T13 construct: purchased Carna Biosciences (QuickScout service)
Nature of the data set: QuickScout ELISA kinase panel. Format: biochemical.
From the text: as §2

Each structure is given as a SMILES string.

T5 sequence (P41240 whole entry): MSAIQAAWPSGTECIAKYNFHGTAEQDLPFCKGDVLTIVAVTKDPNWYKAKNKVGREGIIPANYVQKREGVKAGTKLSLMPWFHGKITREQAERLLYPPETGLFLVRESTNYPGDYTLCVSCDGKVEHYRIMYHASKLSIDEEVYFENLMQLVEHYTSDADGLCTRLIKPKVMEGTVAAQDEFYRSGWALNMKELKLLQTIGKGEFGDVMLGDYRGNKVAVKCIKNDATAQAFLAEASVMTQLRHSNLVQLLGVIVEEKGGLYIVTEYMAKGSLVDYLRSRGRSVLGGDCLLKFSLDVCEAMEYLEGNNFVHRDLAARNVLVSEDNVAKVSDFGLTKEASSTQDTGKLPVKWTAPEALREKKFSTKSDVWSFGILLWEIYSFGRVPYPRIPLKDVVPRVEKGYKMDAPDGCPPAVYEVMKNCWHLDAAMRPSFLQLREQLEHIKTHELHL
T7 sequence (P54760 16-987): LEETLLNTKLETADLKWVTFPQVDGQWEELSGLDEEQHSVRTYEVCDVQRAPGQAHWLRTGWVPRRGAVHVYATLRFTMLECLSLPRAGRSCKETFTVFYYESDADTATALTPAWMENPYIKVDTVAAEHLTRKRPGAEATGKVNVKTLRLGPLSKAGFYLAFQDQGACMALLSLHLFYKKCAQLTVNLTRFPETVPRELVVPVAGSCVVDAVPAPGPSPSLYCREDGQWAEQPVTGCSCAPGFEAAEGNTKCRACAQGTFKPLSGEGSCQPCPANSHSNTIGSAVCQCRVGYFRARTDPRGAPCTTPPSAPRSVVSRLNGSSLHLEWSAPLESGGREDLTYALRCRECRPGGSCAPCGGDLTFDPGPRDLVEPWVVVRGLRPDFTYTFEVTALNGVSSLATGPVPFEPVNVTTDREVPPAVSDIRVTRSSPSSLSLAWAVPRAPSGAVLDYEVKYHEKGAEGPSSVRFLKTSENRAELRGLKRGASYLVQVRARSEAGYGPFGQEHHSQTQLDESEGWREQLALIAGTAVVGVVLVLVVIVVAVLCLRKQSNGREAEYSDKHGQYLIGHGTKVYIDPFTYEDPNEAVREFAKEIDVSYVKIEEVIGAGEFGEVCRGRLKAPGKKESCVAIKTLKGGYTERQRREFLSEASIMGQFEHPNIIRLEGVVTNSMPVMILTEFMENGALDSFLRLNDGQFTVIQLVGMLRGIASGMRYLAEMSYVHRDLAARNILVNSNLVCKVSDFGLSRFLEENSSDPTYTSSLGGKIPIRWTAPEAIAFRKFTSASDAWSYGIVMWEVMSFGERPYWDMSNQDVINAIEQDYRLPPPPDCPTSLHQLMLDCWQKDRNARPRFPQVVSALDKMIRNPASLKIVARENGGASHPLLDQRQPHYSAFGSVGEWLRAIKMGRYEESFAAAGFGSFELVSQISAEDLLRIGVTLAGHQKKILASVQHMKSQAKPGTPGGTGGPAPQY
T4 sequence (Q07912 whole entry): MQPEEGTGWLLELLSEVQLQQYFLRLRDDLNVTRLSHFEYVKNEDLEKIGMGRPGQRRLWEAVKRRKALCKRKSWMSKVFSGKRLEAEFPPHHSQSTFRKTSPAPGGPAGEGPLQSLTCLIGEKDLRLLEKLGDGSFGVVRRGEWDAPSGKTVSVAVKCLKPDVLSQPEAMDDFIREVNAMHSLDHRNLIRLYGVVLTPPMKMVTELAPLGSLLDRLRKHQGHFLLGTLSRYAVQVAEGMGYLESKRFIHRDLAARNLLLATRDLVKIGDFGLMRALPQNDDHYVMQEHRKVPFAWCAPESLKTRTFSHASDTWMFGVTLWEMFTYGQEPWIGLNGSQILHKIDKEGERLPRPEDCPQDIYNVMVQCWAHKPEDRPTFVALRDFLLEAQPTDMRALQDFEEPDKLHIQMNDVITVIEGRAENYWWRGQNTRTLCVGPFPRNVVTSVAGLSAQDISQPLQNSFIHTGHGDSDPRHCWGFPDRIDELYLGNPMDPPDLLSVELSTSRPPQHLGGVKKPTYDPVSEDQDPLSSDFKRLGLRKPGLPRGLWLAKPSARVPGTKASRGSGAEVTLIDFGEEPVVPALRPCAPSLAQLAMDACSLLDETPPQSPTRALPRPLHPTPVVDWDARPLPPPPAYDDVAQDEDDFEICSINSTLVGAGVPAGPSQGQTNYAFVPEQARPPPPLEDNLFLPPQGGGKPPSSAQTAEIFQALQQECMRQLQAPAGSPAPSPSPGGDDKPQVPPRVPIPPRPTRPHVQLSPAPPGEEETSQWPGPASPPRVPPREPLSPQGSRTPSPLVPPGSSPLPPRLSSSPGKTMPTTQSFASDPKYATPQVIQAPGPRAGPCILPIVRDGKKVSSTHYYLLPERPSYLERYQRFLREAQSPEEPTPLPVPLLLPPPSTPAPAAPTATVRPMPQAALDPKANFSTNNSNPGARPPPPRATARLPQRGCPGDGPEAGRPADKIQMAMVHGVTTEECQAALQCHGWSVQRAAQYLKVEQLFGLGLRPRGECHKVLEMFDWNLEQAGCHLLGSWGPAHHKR
SRC, sequence (P12931 whole entry): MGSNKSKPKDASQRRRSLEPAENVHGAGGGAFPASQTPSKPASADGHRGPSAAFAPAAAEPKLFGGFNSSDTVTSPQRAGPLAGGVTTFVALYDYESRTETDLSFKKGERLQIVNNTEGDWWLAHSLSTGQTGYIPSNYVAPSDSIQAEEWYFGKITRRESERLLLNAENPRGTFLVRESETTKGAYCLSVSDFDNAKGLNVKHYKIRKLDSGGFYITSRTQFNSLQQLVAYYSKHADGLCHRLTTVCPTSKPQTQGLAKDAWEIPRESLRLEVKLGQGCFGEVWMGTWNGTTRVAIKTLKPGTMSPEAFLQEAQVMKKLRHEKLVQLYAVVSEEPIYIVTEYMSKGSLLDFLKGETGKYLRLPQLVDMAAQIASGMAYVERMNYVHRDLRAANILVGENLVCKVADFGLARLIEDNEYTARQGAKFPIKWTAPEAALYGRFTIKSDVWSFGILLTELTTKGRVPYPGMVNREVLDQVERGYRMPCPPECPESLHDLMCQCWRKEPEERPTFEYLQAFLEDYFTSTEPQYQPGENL
T8 sequence (P16234 550-1089 limits assumed): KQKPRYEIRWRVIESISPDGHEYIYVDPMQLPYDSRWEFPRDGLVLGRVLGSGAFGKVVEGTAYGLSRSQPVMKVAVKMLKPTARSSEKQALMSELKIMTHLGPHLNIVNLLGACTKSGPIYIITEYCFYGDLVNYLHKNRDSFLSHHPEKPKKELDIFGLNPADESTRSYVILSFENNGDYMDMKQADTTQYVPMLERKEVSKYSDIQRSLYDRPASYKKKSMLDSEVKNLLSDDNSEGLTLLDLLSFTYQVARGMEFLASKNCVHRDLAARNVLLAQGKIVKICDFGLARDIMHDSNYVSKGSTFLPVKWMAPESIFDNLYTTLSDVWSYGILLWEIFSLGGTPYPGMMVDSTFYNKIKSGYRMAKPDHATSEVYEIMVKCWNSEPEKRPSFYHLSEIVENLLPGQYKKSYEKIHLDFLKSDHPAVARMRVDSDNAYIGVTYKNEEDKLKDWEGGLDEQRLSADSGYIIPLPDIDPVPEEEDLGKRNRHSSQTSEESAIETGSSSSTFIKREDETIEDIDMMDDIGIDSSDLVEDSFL
T6 sequence (P29317 24-976): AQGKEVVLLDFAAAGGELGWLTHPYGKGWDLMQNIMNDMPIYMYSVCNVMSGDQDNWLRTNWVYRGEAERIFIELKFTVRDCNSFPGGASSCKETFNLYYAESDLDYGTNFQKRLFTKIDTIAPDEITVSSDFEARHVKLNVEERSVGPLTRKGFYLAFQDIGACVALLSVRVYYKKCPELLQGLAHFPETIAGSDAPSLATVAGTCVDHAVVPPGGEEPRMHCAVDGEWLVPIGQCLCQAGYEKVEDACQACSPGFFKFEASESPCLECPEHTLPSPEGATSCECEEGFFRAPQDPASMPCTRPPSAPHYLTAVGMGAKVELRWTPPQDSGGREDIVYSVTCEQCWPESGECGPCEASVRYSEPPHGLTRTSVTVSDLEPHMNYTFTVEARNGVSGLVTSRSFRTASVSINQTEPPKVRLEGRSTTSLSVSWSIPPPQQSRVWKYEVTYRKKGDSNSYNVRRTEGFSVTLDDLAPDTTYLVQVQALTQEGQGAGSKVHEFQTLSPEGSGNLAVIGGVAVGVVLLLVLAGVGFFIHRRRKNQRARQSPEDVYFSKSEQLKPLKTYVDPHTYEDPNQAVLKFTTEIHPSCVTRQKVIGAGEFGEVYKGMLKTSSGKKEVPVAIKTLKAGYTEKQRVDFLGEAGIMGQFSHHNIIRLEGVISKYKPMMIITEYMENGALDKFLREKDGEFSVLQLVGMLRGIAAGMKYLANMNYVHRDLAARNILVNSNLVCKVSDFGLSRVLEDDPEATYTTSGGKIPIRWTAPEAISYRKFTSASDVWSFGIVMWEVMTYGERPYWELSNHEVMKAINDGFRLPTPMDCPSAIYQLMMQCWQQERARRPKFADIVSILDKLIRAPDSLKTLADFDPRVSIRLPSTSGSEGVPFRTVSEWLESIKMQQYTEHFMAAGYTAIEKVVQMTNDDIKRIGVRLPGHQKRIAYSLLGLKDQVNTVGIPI

In the case of `Cc1nc(Nc2ncc(C(=O)Nc3c(C)cccc3Cl)s2)cc(N2CCN(CCO)CC2)n1.O` [Dasatinib, N-(2-chloro-6-methylphenyl)-2-[[6-[4-(2-hydroxyethyl)-1-piperazinyl]-2-methyl-4-pyrimidinyl]amino]-5-thiazole carboxamide monohydrate, reference compound], the IC50 with M07e cells was determined as 1.2 ± 0.8 nM. In addition, the “effect of unlabeled Dasatinib on [18F]-5 uptake” value in data set [1] (Dasatinib 30 mg/kg IP) was “competitive inhibition of tracer uptake in the tumors and organs”. Moreover, the “patients with severe myelosuppression” value in [2] is reported as > 50%.
Turning to `Cc1nc(Nc2ncc(C(=O)Nc3c(C)cccc3Cl)s2)cc(N2CCN(CC[18F])CC2)n1` [[^18F]-5], the concentration giving a half-maximal response (EC50) was 270 nM at EGFR; 390 nM at FGFR1; 1.3 nM on KIT; 20 nM at ACK (Table 3); 5 nM on CSK (Table 3); 1.9 nM on EphA2 (Table 3). The EC50 at EphB4 (Table 3) stood at 3.1 nM; at PDGFR— (Table 3), 16 nM; at TEC (Table 3), 1.9 nM; on SRC it was 2.6 nM; at ABL, 0.6 nM. For the same molecule, in [3] (mouse blood centrifuged at 2200 x g after i.v. injection), the “total blood radioactivity retained in the pellet” value is “about 50%”. Also, the “Peak 3 [18F]-5 (16.9 min) % Radioactivity, parent” value in [3] (30 min post injection) was determined as 31 ± 11%; in data set [3] (60 min post injection), 9 ± 3%; in [3] (120 min post injection, one trial only), 8%. In addition, the “metabolism in plasma over time course” value in data set [3] (two-hour time course, HPLC of plasma) is given as “metabolized significantly”. Besides, in data set [4] (60 minutes after i.v. injection, one representative mouse), the “tracer activity within the tumor xenograft by ROI analysis” value is reported as 1.1 % of the injected dose. For the same molecule, the route of clearance entry in data set [4] (microPET 60-75 min) is “cleared via the hepatobiliary route predominantly”. For the same molecule, in data set [4] (microPET 60-75 min), the uptake in bone entry is “no significant uptake”. Besides, the “K562 tumor uptake in mice” value in [4] (mouse, in vivo) is given as “significant K562 tumor uptake”. Further, in data set [1] (H1975 right, H1975-DR left shoulder, before Dasatinib), the “tumor uptake of tracer” value was “tumor uptake is evident bilaterally”.
Take `CN[C@@H]1C[C@H]2O[C@@](C)([C@@H]1OC)n1c3ccccc3c3c4c(c5c6ccccc6n2c5c31)C(=O)NC4` [Staurosporine, reference compound]: the inhibition at 0.03 µM at ACK (read-out: % Inhibition of Kinase Activity, ACK) was 96.4%. In addition, the inhibition at 0.3 µM at CSK (read-out: % Inhibition of Kinase Activity, CSK) turned out to be 89.3%; against MET it was 90%; at TEC (read-out: % Inhibition of Kinase Activity, TEC) it was 92.5%. In addition, the inhibition at 10 µM on EphA2 (read-out: % Inhibition of Kinase Activity, EphA2) stood at 92.6%; on EphB4 (read-out: % Inhibition of Kinase Activity, EphB4), 94.1%. In addition, the inhibition at 0.003 µM came to 96.4% against FLT3; 95.3% on JAK3; 88.4% at PDGFR— (read-out: % Inhibition of Kinase Activity, PDGFR—). The inhibition at 1 µM on TYRO3 came to 95.3%. Also, at SRC (read-out: % Inhibition of Kinase Activity, SRC, Staurosporine at 3000 nM), the inhibition at 3 µM is 89.8%.

The EC50 is the concentration that produces a half-maximal response. As usually defined, the inhibition is the relative decrease from the control value, in per cent.
